Source: patent US5759835A, “Bacterial nitric oxide synthase” (priority 1995, dated 1998)
“Also recorded” adds a separate entry of the source.

Tests used:
NOSNoc [1] = test: NOSNoc activity, oxyhemoglobin spectrophotometric assay (kinetics and inhibition); assay type: biochemical, Nocardia species (NRRL 5646); conditions: for Vmax / Km: compound as substrate of NOSNoc; for Ki: model of competitive inhibition; for Mode of inhibition of NO synthesis by NOSNoc: with either L-arginine or L-NOHA as substrate
Method: Assays for NOS activity were carried out using a Shimadzu 160 spectrophotometer by observing the increase in absorbance at 401 nm at 25° C. A typical sample assay contained 50 mM potassium phosphate buffer (pH 7.5), 4 μM oxyHb, 100 μM L-arginine of L-NOHA (for kinetic experiments), 100 μM NADPH, 1 mM CaCl2, 10 μM FAD, 10 μM FMN, 80 μM H4 B, 150 μM DTT and 0.1-2 μg enzyme in a final volume of 1 ml. For assays, the reference cuvette contained all components except for L-arginine or L-NOHA. All assays were initiated by adding enzyme.

NOSNoc [2] = test: Stoichiometry of product formation and cofactor utilization by NOSNoc; assay type: biochemical, Nocardia species (NRRL 5646); conditions: compound as substrate for NOSNoc
Method: NOS activity was also determined by measuring the decrease in absorbance at 340 nm as NADPH was consumed during the conversation of L-arginine to L-citrulline by NOS. Furfine, E. S., et al. (1993) Biochemistry 32, pp. 8512-8517.
Bredt, D. S., and Snyder, S. H. (1989) Proc. Natl. Acad. Sci. U.S.A. 86, pp. 9030-9033. Reaction samples (50 μl, 100 μM arginine and 1 μCi radioactivity)in 2 ml of stop buffer (20 mM HEPES and 2 mM EDTA, pH 5.5) were applied to a fresh 1-ml Dowex AG50W-X8 (Na+ form, 100-200 mesh) column. Labeled citrulline was eluted with 2 ml of distilled water, and the eluates were collected. Aliquots of 0.1 ml of eluate were dissolved in 5 ml of Budget Solve cocktail in 10 ml scintillation vials, and radioactivity was measured in a Beckman LS 3801 liquid scintillation system.
Nitrite was measured spectrophotometrically using Griess reagent. Green, L. C., et al. (1982) Anal. Biochem. 126, pp. 131-138. […] After standing for 15-30 minutes at room temperature, the absorbance at 540 nm was measured. Nitrite concentrations were estimated by comparison with a standard curve at the range of 0-1.0 μg/ml prepared with standard sodium nitrite in water.
Oxygen concentrations were calculated based on the deflection of the chart recorder versus 206 μM oxygen-total oxygen content in the reaction vessel. Koppenol, W. H. (1985) Adv. Free Radical Biol. Med. 1, 91-131.
Stoichiometric determinations of oxygen consumed, NADPH oxidized, NO and citrulline formed, and kinetic experiments were carried out to confirm that L-NOHA is an intermediate in the biosynthesis of nitric oxide from L-arginine.

[3] = EZ-FIT fit, table values are the mean S.D. of three determinations
[4] = Table III, EZ-FIT fit, mean S.D. of three determinations
[5] = L-Arginine as substrate, mean S.D. of three determinations
[6] = N^G -Hydroxy-L-arginine as substrate, mean S.D. of three determinations

Structure (SMILES) | Vmax (NOSNoc [1]) [nmol/min/mg protein] | Km (NOSNoc [1]; [3]) [µM] | Vmax (NOSNoc [1]; [4]) [nmole/min/mg protein] | Citrulline formation (NOSNoc [2]) [nmol] | NADPH consump (NOSNoc [2]) [nmol] | Nitrile formation (NOSNoc [2]) [nmol] | Oxygen consump (NOSNoc [2]) [nmol] | Km (NOSNoc [1]; value as printed in the discussion) [µM] | Ki (NOSNoc [1]; [5]) [µM] | Ki (NOSNoc [1]; [6]) [µM] | Mode of inhibition of NO synthesis by NOSNoc (NOSNoc [1]; listed as L-NMA) | Mode of inhibition of NO synthesis by NOSNoc (NOSNoc [1]; listed as L-NNA)
N=C(N)NCCC[C@H](N)C(=O)O [L-Arginine] | 607 | 5.7 | 274 ± 13 | 4.21 ± 0.17 | 8.77 ± 0.32 | 4.63 ± 0.28 | 8.89 ± 0.33 |  |  |  |  | 
N=C(NO)NCCC[C@H](N)C(=O)O [N^G -Hydroxy-L-arginine] | 549 | 15.8 | 303 ± 15 | 4.54 ± 0.21 | 4.38 ± 0.24 | 4.57 ± 0.20 | 4.46 ± 0.16 | 15.8 |  |  |  | 
CNC(=N)NCCC[C@H](N)C(=O)O [N^G -methyl-L-arginine] |  |  |  |  |  |  |  |  | 6.2 ± 0.4 | 21.4 ± 1.2 | typical competitive inhibition; also recorded: reversible competitive inhibitors | 
N=C(NCCC[C@H](N)C(=O)O)N[N+](=O)[O-] [N^G -nitro-L-arginine] |  |  |  |  |  |  |  |  | 9.8 ± 0.6 | 21.4 ± 1.2 |  | typical competitive inhibition; also recorded: reversible competitive inhibitors
